The text below walks through data of patent US20250163104A1, “MACROCYCLIC IMMUNOMODULATORS” (priority 2021, published 2025).

One may read the IC50 as the concentration needed to halve the response being measured.

The assay has as its target T1, human PD-1 / PD-L1-Ig binding on Jurkat cell line over-expressing human PD-1 (Jurkat-PD-1) (Homo sapiens, UniProt Q15116).
T1 construct: expressed in transfected cells; host or cells: Jurkat
Description: Jurkat-PD-1 Cell Binding High-Content Screening Assay (CBA). In kind it is cell-based. As to conditions: PE-labeled PD-L1-Ig 20 nM final. The procedure, abridged:
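Binding of fluorescent PD-L1-Ig (phycoerythrin linked via the Ig tag, 20 nM final) to PD-1-overexpressing Jurkat cells was imaged after a 2 h, 37° C compound pretreatment and 1 hour ligand incubation.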

[1] abbreviates: Jurkat-PD-1 cells, read-out: Jurkat HPD1_PDL1 IC50.
The mark [2] stands for this setting: Jurkat HPD1_PDL1 IC50, Jurkat-PD-1 cells.

Structures are written as SMILES. Read-outs that look alike come from different tables or passages of the source. *1 amine or outer side, *2 acyl side, *3 side chain or, on linkers, in order; H or OH if unused. Where a SMILES comes first, the peptide text is derived from it. Bridges are numbered along the chain shown (N, C = ends). [ ]: non-standard residue; d: D form. The star is where a group is joined. ξ: configuration not given here. Phe(4-CONH2) = NC(=O)c1ccc(C[C@H](N)C(=O)O)cc1; Phe(4-COOH) = N[C@@H](Cc1ccc(C(=O)O)cc1)C(=O)O; X5 = O=C([C@H](Cc1ccc2ncccc2c1)N[*:1])[*:2]; Bip = N[C@@H](Cc1ccc(-c2ccccc2)cc1)C(=O)O; Phe(3-OMe) = COc1cccc(C[C@H](N)C(=O)O)c1; Phe(3-Me) = Cc1cccc(C[C@H](N)C(=O)O)c1; Ethylenediamine = C(CN[*:2])N[*:1]; Val(3-OH) = CC(C)(O)[C@H](N)C(=O)O; hArg = N=C(N)NCCCC[C@H](N)C(=O)O; 4Pal = N[C@@H](Cc1ccncc1)C(=O)O; Cha = N[C@@H](CC1CCCCC1)C(=O)O; Cit = NC(=O)NCCC[C@H](N)C(=O)O; Ile(3ξ) = CCC(C)[C@H](N)C(=O)O; Thr(3ξ) = CC(O)[C@H](N)C(=O)O; Dap(Me) = CNC[C@H](N)C(=O)O; Carboxymethyl = O=C(O)C*; Nle = CCCC[C@H](N)C(=O)O; Orn = NCCC[C@H](N)C(=O)O; Dab = NCC[C@H](N)C(=O)O; Dap = NC[C@H](N)C(=O)O

T1 sequence (Q15116 25-288): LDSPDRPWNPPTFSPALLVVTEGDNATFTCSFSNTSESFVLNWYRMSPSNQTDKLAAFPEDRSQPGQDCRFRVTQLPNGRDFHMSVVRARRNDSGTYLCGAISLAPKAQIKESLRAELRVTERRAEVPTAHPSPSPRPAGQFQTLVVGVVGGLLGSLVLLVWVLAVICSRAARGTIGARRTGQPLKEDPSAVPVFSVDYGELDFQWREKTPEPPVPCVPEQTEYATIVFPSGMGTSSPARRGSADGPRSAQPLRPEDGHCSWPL

For the compound `CC(C)C[C@@H]1NC(=O)[C@H](CCCCN)NC(=O)[C@@H](CC(C)C)NC(=O)[C@H](CCCN)NC(=O)[C@H](Cc2cnc[nH]2)NC(=O)[C@H](Cc2ccc(-c3ccccc3)cc2)NC(=O)[C@H](C(C)C)NC(=O)[C@H](Cc2c[nH]c3ccccc23)NC(=O)[C@H](CC(=O)O)NC(=O)[C@H](Cc2ccc(O)cc2)NC(=O)[C@H](CC(N)=O)NC(=O)CSC[C@@H](C(=O)N[C@@H](C)C(N)=O)NC(=O)[C@H]([C@@H](C)O)NC(=O)[C@H](C(C)C)NC1=O` [Compound 1133] ({CH2CO}-NYDWV[Bip]H[Orn][dL]KLVTCA-NH2; thioether N-14), the IC50 under setting [1] came to 33.1 nM.
Still for that read-out and setting: the result for `CCC(C)[C@@H]1NC(=O)[C@H](Cc2ccc(-c3ccccc3)cc2)NC(=O)[C@H](C(C)C)NC(=O)[C@H](Cc2cccc(C)c2)NC(=O)[C@H](CC(=O)O)NC(=O)[C@H](Cc2ccc(-c3cccc(C(=O)O)c3)cc2)NC(=O)[C@H](CC(N)=O)NC(=O)CSC[C@@H](C(=O)N[C@@H](C)C(N)=O)NC(=O)[C@H]([C@@H](C)O)NC(=O)[C@H](C(C)C)NC(=O)[C@H](CC2CCCCC2)NC(=O)[C@H](CCN)NC(=O)[C@@H](CC(C)C)NC(=O)[C@H](CCCN)NC1=O` (stereo partly drawn) [Compound 2222] reads 25 nM; that for `CC(C)C[C@@H]1NC(=O)[C@H](Cc2c[nH]c3ccccc23)NC(=O)[C@H](CC(=O)O)NC(=O)[C@H](Cc2ccncc2)NC(=O)[C@H](Cc2ccc(OCC(=O)O)cc2)NC(=O)CSC[C@@H](C(=O)NCC(N)=O)NC(=O)[C@H](CO)NC(=O)[C@H](C(C)C)NC(=O)[C@H](CC(C)C)NC(=O)[C@H](CC(N)=O)NC(=O)[C@@H](CC(C)C)NC(=O)[C@H](CN)NC(=O)[C@H](C(C)C)NC(=O)[C@H](Cc2ccc(-c3ccccc3)cc2)NC1=O` [Compound 1278] ({CH2CO}-Y(Carboxymethyl)[4Pal]DWL[Bip]V[Dap][dL]NLVSCG-NH2; thioether N-14), 27.3 nM; that for `CCC(C)[C@@H]1NC(=O)[C@H](Cc2ccc(-c3ccccc3)cc2)NC(=O)[C@H](C(C)C)NC(=O)[C@H](Cc2c[nH]c3ccccc23)NC(=O)[C@H](CC(=O)O)NC(=O)[C@H](Cc2ccc(OCC(=O)O)cc2)NC(=O)[C@H](CNC)NC(=O)CSC[C@@H](C(=O)N[C@@H](C)C(N)=O)NC(=O)[C@H](C(C)O)NC(=O)[C@H](C(C)C)NC(=O)[C@H](CC(C)C)NC(=O)[C@H](CCN)NC(=O)[C@@H](CC(C)C)NC(=O)[C@H](CCCN)NC1=O` (stereo partly drawn) [Compound 2512] ({CH2CO}-[Dap(Me)]Y(Carboxymethyl)DWV[Bip][Ile(3ξ)][Orn][dL][Dab]LV[Thr(3ξ)]CA-NH2; thioether N-14), 10.8 nM.
`CCCC[C@@H]1NC(=O)[C@H](CCN)NC(=O)[C@@H](CC(C)C)NC(=O)[C@H](CCCN)NC(=O)[C@H](C(C)C)NC(=O)[C@H](Cc2ccc(-c3ccccc3)cc2)NC(=O)[C@H](C(C)C)NC(=O)[C@H](Cc2c[nH]c3ccccc23)NC(=O)[C@H](CC(=O)O)NC(=O)[C@H](Cc2ccc(O)cc2)NC(=O)[C@H](Cc2ccc(OCC(=O)O)cc2)NC(=O)CSC[C@@H](C(=O)N[C@@H](C)C(N)=O)NC(=O)[C@H]([C@@H](C)O)NC(=O)[C@H](C(C)C)NC1=O` [Compound 1170] ({CH2CO}-Y(Carboxymethyl)YDWV[Bip]V[Orn][dL][Dab][Nle]VTCA-NH2; thioether N-14): the IC50 under setting [1] was found to be 10.8 nM.
Take `CC[C@H](C)[C@@H]1NC(=O)[C@H](Cc2ccc(-c3ccccc3)cc2)NC(=O)[C@H](C(C)C)NC(=O)[C@H](Cc2cccc(OC)c2)NC(=O)[C@H](CC(=O)O)NC(=O)[C@H](Cc2ccc(OCC(=O)O)cc2)NC(=O)[C@H](Cc2ccncc2)NC(=O)CSC[C@@H](C(=O)N[C@@H](C)C(N)=O)NC(=O)[C@H]([C@@H](C)O)NC(=O)[C@H](C(C)C)NC(=O)[C@H](CC(C)C)NC(=O)[C@H](CCN)NC(=O)[C@@H](CC(C)C)NC(=O)[C@H](CCCN)NC1=O` [Compound 1187]: the IC50 under setting [2] turned out to be 10.7 nM.
Consider `CC(C)C[C@@H]1NC(=O)[C@H](CCN)NC(=O)[C@@H](CC(C)C)NC(=O)[C@H](CCCN)NC(=O)[C@H](C(C)C)NC(=O)[C@H](Cc2ccc(-c3ccccc3)cc2)NC(=O)[C@H](C(C)C)NC(=O)[C@H](Cc2c[nH]c3ccccc23)NC(=O)[C@H](CC(=O)O)NC(=O)[C@H](Cc2ccc(OCC(=O)O)cc2)NC(=O)[C@H](Cc2ccc(OCC(=O)O)cc2)NC(=O)CSC[C@@H](C(=O)N[C@@H](C)C(N)=O)NC(=O)[C@H]([C@@H](C)O)NC(=O)[C@H](C(C)C)NC1=O` [Compound 1245] ({CH2CO}-Y(Carboxymethyl)Y(Carboxymethyl)DWV[Bip]V[Orn][dL][Dab]LVTCA-NH2; thioether N-14), for which, under setting [1], the IC50 came out at 20.8 nM.
As for `COc1cccc(C[C@@H]2NC(=O)[C@H](CC(=O)O)NC(=O)[C@H](Cc3ccc(C(=O)O)cc3)NC(=O)[C@H](Cc3ccncc3)NC(=O)CSC[C@@H](C(=O)N[C@@H](C)C(N)=O)NC(=O)[C@H]([C@@H](C)O)NC(=O)[C@H](C(C)C)NC(=O)[C@H](CC(C)C)NC(=O)[C@H](CCN)NC(=O)[C@@H](CC(C)C)NC(=O)[C@H](CCCN)NC(=O)[C@H](CCCNC(N)=O)NC(=O)[C@H](Cc3ccc(-c4ccccc4)cc3)NC(=O)[C@H](C(C)C)NC2=O)c1` [Compound 1179] ({CH2CO}-[4Pal][Phe(4-COOH)]D[Phe(3-OMe)]V[Bip][Cit][Orn][dL][Dab]LVTCA-NH2; thioether N-14), under setting [1], the IC50 was 5.8 nM.
Take `CC(C)C[C@@H]1NC(=O)[C@H](Cc2c[nH]c3ccccc23)NC(=O)[C@H](CC(=O)O)NC(=O)[C@H](Cc2ccc(O)cc2)NC(=O)[C@H](Cc2ccccc2)NC(=O)CSC[C@@H](C(=O)N[C@@H](C)C(N)=O)NC(=O)[C@H](CO)NC(=O)[C@H](C(C)C)NC(=O)[C@H](CC(C)C)NC(=O)[C@H](CCN)NC(=O)[C@@H](CC(C)C)NC(=O)[C@H](CCN)NC(=O)[C@H](C(C)C)NC(=O)[C@H](Cc2ccc(-c3ccccc3)cc2)NC1=O` [Compound 1061] ({CH2CO}-FYDWL[Bip]V[Dab][dL][Dab]LVSCA-NH2; thioether N-14): under setting [1], the half-inhibitory concentration (IC50) was 8.8 nM.
As for `Cc1cccc(C[C@@H]2NC(=O)[C@H](CC(=O)O)NC(=O)[C@H](Cc3ccc(OCC(=O)O)cc3)NC(=O)[C@H](C(C)O)NC(=O)CSC[C@@H](C(=O)N[C@@H](CO)C(=O)NCCN)NC(=O)[C@H](C(C)O)NC(=O)[C@H](C(C)(C)O)NC(=O)[C@H](CC3CCCCC3)NC(=O)[C@H](CCN)NC(=O)[C@@H](CC(C)C)NC(=O)[C@H](CCCN)NC(=O)[C@H](Cc3ccc(O)cc3)NC(=O)[C@H](Cc3ccc(-c4ccccc4)cc3)NC(=O)[C@H](Cc3ccc(C(N)=O)cc3)NC2=O)c1` (stereo partly drawn) [Compound 2663] ({CH2CO}-[Thr(3ξ)]Y(Carboxymethyl)D[Phe(3-Me)][Phe(4-CONH2)][Bip]Y[Orn][dL][Dab][Cha][Val(3-OH)][Thr(3ξ)]CS-Ethylenediamine; thioether N-14), the IC50 under setting [1] worked out at 11.6 nM.
`CC[C@H](C)[C@@H]1NC(=O)[C@H](Cc2ccc(-c3ccccc3)cc2)NC(=O)[C@H](C(C)C)NC(=O)[C@H](Cc2cccc(C(F)(F)F)c2)NC(=O)[C@H](CC(=O)O)NC(=O)[C@H](Cc2ccc(OCC(=O)O)cc2)NC(=O)[C@H](Cc2ccncc2)NC(=O)CSC[C@@H](C(=O)N[C@@H](C)C(N)=O)NC(=O)[C@H]([C@@H](C)O)NC(=O)[C@H](C(C)C)NC(=O)[C@H](CC2CCCCC2)NC(=O)[C@H](CCN)NC(=O)[C@@H](CC(C)C)NC(=O)[C@H](CCCN)NC1=O` [Compound 1567] had a 50% inhibitory concentration (IC50) under setting [2] of 25.8 nM.
Regarding `CC(C)C[C@H]1NC(=O)[C@H](CCCN)NC(=O)[C@H](CCC(=O)O)NC(=O)[C@H](Cc2ccc(-c3ccccc3)cc2)NC(=O)[C@H](C(C)C)NC(=O)[C@H](Cc2c[nH]c3ccccc23)NC(=O)[C@H](CC(=O)O)NC(=O)[C@H](Cc2ccc3ncccc3c2)NC(=O)[C@H](CN)NC(=O)CSC[C@@H](C(=O)N[C@@H](C)C(N)=O)NC(=O)[C@H]([C@@H](C)O)NC(=O)[C@H](C(C)C)NC(=O)[C@H](CC2CCCCC2)NC(=O)[C@H](CCN)NC1=O` [Compound 2177] ({CH2CO}-[Dap][X5]DWV[Bip]E[Orn][dL][Dab][Cha]VTCA-NH2; thioether N-14), under setting [1], the concentration for half-maximal inhibition (IC50) is 128 nM.
Compound `CC(C)C[C@@H]1NC(=O)[C@H](Cc2c[nH]c3ccccc23)NC(=O)[C@H](CC(=O)O)NC(=O)[C@H](Cc2ccc(OCC(=O)O)cc2)NC(=O)[C@H](CN)NC(=O)CSC[C@@H](C(=O)NCC(N)=O)NC(=O)[C@H](CO)NC(=O)[C@H](C(C)C)NC(=O)[C@H](CC(C)C)NC(=O)[C@H](CC(N)=O)NC(=O)[C@@H](CC(C)C)NC(=O)[C@H](CCN)NC(=O)[C@H](C(C)C)NC(=O)[C@H](Cc2ccc(-c3ccccc3)cc2)NC1=O` [Compound 1280] ({CH2CO}-[Dap]Y(Carboxymethyl)DWL[Bip]V[Dab][dL]NLVSCG-NH2; thioether N-14) returned an IC50 under setting [2] of 9.7 nM.
Regarding `Cc1cccc(C[C@@H]2NC(=O)[C@H](CC(=O)O)NC(=O)[C@H](Cc3ccc(OCC(=O)O)cc3)NC(=O)[C@H](CCCCNC(=N)N)NC(=O)CSC[C@@H](C(=O)N[C@@H](CO)C(=O)N[C@@H](CCCCN)C(N)=O)NC(=O)[C@H](CO)NC(=O)[C@H](C(C)C)NC(=O)[C@H](CC3CCCCC3)NC(=O)[C@H](CCN)NC(=O)[C@@H](CC(C)C)NC(=O)[C@H](CCCN)NC(=O)[C@H](CCCNC(N)=O)NC(=O)[C@H](Cc3ccc(-c4ccccc4)cc3)NC(=O)[C@H](C(C)C)NC2=O)c1` [Compound 2593] ({CH2CO}-[hArg]Y(Carboxymethyl)D[Phe(3-Me)]V[Bip][Cit][Orn][dL][Dab][Cha]VSCSK-NH2; thioether N-14), the IC50 under setting [1] came out at 3.9 nM.
As to `CCC(C)[C@@H]1NC(=O)[C@H](Cc2ccc(-c3ccccc3)cc2)NC(=O)[C@H](CO)NC(=O)[C@H](Cc2c[nH]c3ccccc23)NC(=O)[C@H](CC(=O)O)NC(=O)[C@H](Cc2ccc(OCC(=O)O)cc2)NC(=O)[C@H](C(C)O)NC(=O)CSC[C@@H](C(=O)N[C@@H](CC(N)=O)C(=O)O)NC(=O)[C@H](CO)NC(=O)[C@H](C(C)C)NC(=O)[C@H](CC(C)C)NC(=O)[C@H](CCN)NC(=O)[C@@H](CC(C)C)NC(=O)[C@H](CCCN)NC1=O` (stereo partly drawn) [Compound 2581] ({CH2CO}-[Thr(3ξ)]Y(Carboxymethyl)DWS[Bip][Ile(3ξ)][Orn][dL][Dab]LVSCN-OH; thioether N-14), for the setting “read-out: Jurkat HPD1_PDL1 IC50, Jurkat-PD-1 cells”, the IC50 came to 472 nM.
